Experimental data taken from paper PMC8458281, “Computational modeling and experimental validation of the EPI-X4/CXCR4 complex allows rational design of small peptide antagonists” (Communications Biology, 2021).

What was measured:
Format in all cases: binding, human
CXCR4 L41A = experiment: 12G5 antibody competition, 293T cells transfected with CXCR4 L41A; conditions: IC50 on CXCR4 L41A relative to wt
Procedure: (§1) Fig. 4 The interactions of EPI-X4 and the EPI-X4 derivatives WSC02 and JM#21 with point-mutated CXCR4 were assessed by an antibody competition assay. Amino acid substitutions were introduced in the sequence of CXCR4 by site-directed mutagenesis, cloned into an IRES-eGFP expression vector, and transfected into 293 T cells. Afterward, cells were incubated with serially diluted EPI-X4 (a, b), WSC02 (c, d), or JM#21 (e, f) in presence of a constant concentration of CXCR4 specific antibody (clone 12G5). After 2 h, bound antibody was analyzed by flow cytometry. a, c, e) Representative dose-dependent replacement of 12G5 antibody by peptides. b, d, f) IC50 values were calculated by nonlinear regression. Shown are data derived from at least three individual experiments ± SEM. IC50 values were set to 1000 µM (EPI-X4 and WSC02) or 100 µM (JM#21) if the value exceeds the maximally used concentration. *p ≤ 0.05, ***p ≤ 0.001 (one-way ANOVA for comparison with wt). For IC50 values see Table 1. For all binding curves see also Fig. S8.
(§2) Mutated CXCR4 constructs were transfected into 293 T cells that have a very low endogenous expression level of wild-type CXCR4. Transfected cells were then analyzed for CXCR4 surface expression (Fig. S5a) and EPI-X4 binding using a flow cytometry-based antibody competition assay (Fig. S5b, c)[33]. […]

CXCR4 D97E = experiment: 12G5 antibody competition, 293T cells transfected with CXCR4 D97E; conditions: IC50 on CXCR4 D97E relative to wt
Procedure: as §1, §2

CXCR4 D97S = experiment: 12G5 antibody competition, 293T cells transfected with CXCR4 D97S; conditions: IC50 on CXCR4 D97S relative to wt
Procedure: as §1, §2

CXCR4 D97T = experiment: 12G5 antibody competition, 293T cells transfected with CXCR4 D97T; conditions: IC50 on CXCR4 D97T relative to wt
Procedure: as §1, §2

CXCR4 D97N = experiment: 12G5 antibody competition, 293T cells transfected with CXCR4 D97N; conditions: IC50 on CXCR4 D97N relative to wt
Procedure: as §1, §2

CXCR4 V112L = experiment: 12G5 antibody competition, 293T cells transfected with CXCR4 V112L; conditions: IC50 on CXCR4 V112L relative to wt
Procedure: as §1, §2

CXCR4 D187E = experiment: 12G5 antibody competition, 293T cells transfected with CXCR4 D187E; conditions: IC50 on CXCR4 D187E relative to wt
Procedure: as §1, §2

CXCR4 D262A = experiment: 12G5 antibody competition, 293T cells transfected with CXCR4 D262A; conditions: IC50 on CXCR4 D262A relative to wt
Procedure: as §1, §2

CXCR4 E277A = experiment: 12G5 antibody competition, 293T cells transfected with CXCR4 E277A; conditions: IC50 on CXCR4 E277A relative to wt
Procedure: as §1, §2

CXCR4 D97E + V112A = experiment: 12G5 antibody competition, 293T cells transfected with CXCR4 D97E + V112A; conditions: IC50 on CXCR4 D97E + V112A relative to wt
Procedure: as §1, §2

CXCR4 D97E + V112L = experiment: 12G5 antibody competition, 293T cells transfected with CXCR4 D97E + V112L; conditions: IC50 on CXCR4 D97E + V112L relative to wt
Procedure: as §1, §2

CXCR4 V112A + L41A = experiment: 12G5 antibody competition, 293T cells transfected with CXCR4 V112A + L41A; conditions: IC50 on CXCR4 V112A + L41A relative to wt
Procedure: as §1, §2

[1] = test system: CXCR4 D97E + V112A + L41A; experiment: 12G5 antibody competition, 293T cells transfected with CXCR4 D97E + V112A + L41A; conditions: IC50 on CXCR4 D97E + V112A + L41A relative to wt
Procedure: as §1, §2

Q: For “IVRWSKKVPCVS [WSC02, first-generation C-terminally truncated 12-mer derivative of EPI-X4 with four substitutions]”, which Fold change (CXCR4 L41A) is on record?
A: Its Fold change is 1.5.

Q: And the Fold change (CXCR4 D97E)?
A: Its Fold change is 8.

Q: And the Fold change (CXCR4 D97S)?
A: The Fold change was 18.

Q: And the Fold change (CXCR4 D97T)?
A: The Fold change was 31.

Q: What about the Fold change (CXCR4 D97N) of the same sequence?
A: The Fold change was 466.

Q: What about the Fold change (CXCR4 V112L) of the same sequence?
A: Its Fold change is 0.4.

Q: What about the Fold change (CXCR4 D187E) of the same sequence?
A: The Fold change was 0.4.

Q: What about the Fold change (CXCR4 D262A) of the same sequence?
A: Its Fold change is 0.4.

Q: And the Fold change (CXCR4 E277A)?
A: The Fold change was 0.7.

Q: And the Fold change (CXCR4 D97E + V112A)?
A: Its Fold change is 1.5.

Q: What about the Fold change (CXCR4 D97E + V112L) of the same sequence?
A: The Fold change was 1.8.

Q: And the Fold change (CXCR4 V112A + L41A)?
A: Its Fold change is 4.

Q: What about the Fold change [1] of the same sequence?
A: The Fold change was 5.
